Experimental data taken from ChEMBL document CHEMBL3885881, “DrugMatrix”.

Organism: Rattus norvegicus
Assay: DrugMatrix - Regimen: Daily Repeat
Type: toxicity, organism-based, Sprague-Dawley
Design: regimen Daily Repeat, gender Male, age 6-8 weeks
Conditions: in vivo, po, route oral GAVAGE, vehicle .5 % CMC; for ABSOLUTE BASOPHIL / ABSOLUTE EOSINOPHIL / ABSOLUTE LYMPHOCYTE / ABSOLUTE MONOCYTE / ABSOLUTE SEGMENTED NEUTROPHIL / BASOPHIL / EOSINOPHIL / ERYTHROCYTE COUNT / HEMATOCRIT / HEMOGLOBIN / LEUKOCYTE COUNT / LYMPHOCYTE / MEAN CORPUSCULAR HEMOGLOBIN / MEAN CORPUSCULAR HEMOGLOBIN CONCENTRATION / MEAN CORPUSCULAR VOLUME / MONOCYTE / NEUTROPHIL / NUCLEATED RED BLOOD CELLS / PLATELET COUNT: tissue Blood; for ALANINE AMINOTRANSFERASE / ALBUMIN / ALKALINE PHOSPHATASE / ASPARTATE AMINOTRANSFERASE / BLOOD UREA NITROGEN / CARBON DIOXIDE / CHLORIDE / CHOLESTEROL / CREATINE PHOSPHOKINASE / CREATININE / GLUCOSE / LACTATE DEHYDROGENASE / LIPASE / PHOSPHORUS / POTASSIUM / SODIUM / TOTAL BILIRUBIN / TOTAL PROTEIN / URIC ACID: tissue Plasma
[1] = 300 mg/kg, 72 h, dose level Low, time 3 day
[2] = 300 mg/kg, 120 h, dose level Low, time 5 day
[3] = 2000 mg/kg, 72 h, dose level High, time 3 day
[4] = 2000 mg/kg, 120 h, dose level High, time 5 day

Structure (SMILES): CC1(C)S[C@@H]2[C@H](NC(=O)[C@H](N)c3ccccc3)C(=O)N2[C@H]1C(=O)O [AMPICILLIN]
- ABSOLUTE BASOPHIL [1]: 0 CELLS/uL
- ABSOLUTE EOSINOPHIL [1]: 0 CELLS/uL
- ABSOLUTE LYMPHOCYTE [1]: 16747 CELLS/uL
- ABSOLUTE MONOCYTE [1]: 205.33 CELLS/uL
- ABSOLUTE SEGMENTED NEUTROPHIL [1]: 2214.33 CELLS/uL
- BASOPHIL [1]: 0%
- EOSINOPHIL [1]: 0%
- ERYTHROCYTE COUNT [1]: 5.53 x10E6/uL
- HEMATOCRIT [1]: 34.2%
- HEMOGLOBIN [1]: 13.4 G/DL
- LEUKOCYTE COUNT [1]: 19.17 x10E3/uL
- LYMPHOCYTE [1]: 87.33%
- MEAN CORPUSCULAR HEMOGLOBIN [1]: 24.23 pg
- MEAN CORPUSCULAR HEMOGLOBIN CONCENTRATION [1]: 39.17 G/DL
- MEAN CORPUSCULAR VOLUME [1]: 61.9 fL
- MONOCYTE [1]: 1%
- NEUTROPHIL [1]: 11.67%
- NUCLEATED RED BLOOD CELLS [1]: 0 /100WBC
- PLATELET COUNT [1]: 1348.33 x10E3/uL
- ALANINE AMINOTRANSFERASE [1]: 47.67 u/L
- ALBUMIN [1]: 4.03 G/DL
- ALKALINE PHOSPHATASE [1]: 258.67 u/L
- ASPARTATE AMINOTRANSFERASE [1]: 88 u/L
- BLOOD UREA NITROGEN [1]: 17.67 mg/dL
- CARBON DIOXIDE [1]: 25.67 mmol/L
- CHLORIDE [1]: 101.33 MEQ/L
- CHOLESTEROL [1]: 82.67 mg/dL
- CREATINE PHOSPHOKINASE [1]: 507.67 u/L
- CREATININE [1]: 0.28 mg/dL
- GLUCOSE [1]: 170 mg/dL
- LACTATE DEHYDROGENASE [1]: 299.67 u/L
- LIPASE [1]: 9.33 u/L
- PHOSPHORUS [1]: 11.7 mg/dL
- POTASSIUM [1]: 6.51 MEQ/L
- SODIUM [1]: 143.9 MEQ/L
- TOTAL BILIRUBIN [1]: 0.17 mg/dL
- TOTAL PROTEIN [1]: 5.87 G/DL
- URIC ACID [1]: 2.2 mg/dL
- ABSOLUTE BASOPHIL [2]: 0 CELLS/uL
- ABSOLUTE EOSINOPHIL [2]: 67.33 CELLS/uL
- ABSOLUTE LYMPHOCYTE [2]: 16228 CELLS/uL
- ABSOLUTE MONOCYTE [2]: 111.33 CELLS/uL
- ABSOLUTE SEGMENTED NEUTROPHIL [2]: 1460 CELLS/uL
- BASOPHIL [2]: 0%
- EOSINOPHIL [2]: 0.33%
- ERYTHROCYTE COUNT [2]: 5.55 x10E6/uL
- HEMATOCRIT [2]: 34.3%
- HEMOGLOBIN [2]: 13.4 G/DL
- LEUKOCYTE COUNT [2]: 17.87 x10E3/uL
- LYMPHOCYTE [2]: 91%
- MEAN CORPUSCULAR HEMOGLOBIN [2]: 24.2 pg
- MEAN CORPUSCULAR HEMOGLOBIN CONCENTRATION [2]: 39.1 G/DL
- MEAN CORPUSCULAR VOLUME [2]: 61.93 fL
- MONOCYTE [2]: 0.67%
- NEUTROPHIL [2]: 8%
- NUCLEATED RED BLOOD CELLS [2]: 0 /100WBC
- PLATELET COUNT [2]: 1271.67 x10E3/uL
- ALANINE AMINOTRANSFERASE [2]: 58.33 u/L
- ALBUMIN [2]: 4.17 G/DL
- ALKALINE PHOSPHATASE [2]: 353 u/L
- ASPARTATE AMINOTRANSFERASE [2]: 84.33 u/L
- BLOOD UREA NITROGEN [2]: 16 mg/dL
- CARBON DIOXIDE [2]: 25.67 mmol/L
- CHLORIDE [2]: 103.33 MEQ/L
- CHOLESTEROL [2]: 80.33 mg/dL
- CREATINE PHOSPHOKINASE [2]: 323.67 u/L
- CREATININE [2]: 0.22 mg/dL
- GLUCOSE [2]: 150.33 mg/dL
- LACTATE DEHYDROGENASE [2]: 269.33 u/L
- LIPASE [2]: 10 u/L
- PHOSPHORUS [2]: 13 mg/dL
- POTASSIUM [2]: 6.3 MEQ/L
- SODIUM [2]: 143.7 MEQ/L
- TOTAL BILIRUBIN [2]: 0.13 mg/dL
- TOTAL PROTEIN [2]: 5.9 G/DL
- URIC ACID [2]: 1.67 mg/dL
- ABSOLUTE BASOPHIL [3]: 0 CELLS/uL
- ABSOLUTE EOSINOPHIL [3]: 156 CELLS/uL
- ABSOLUTE LYMPHOCYTE [3]: 12938 CELLS/uL
- ABSOLUTE MONOCYTE [3]: 42 CELLS/uL
- ABSOLUTE SEGMENTED NEUTROPHIL [3]: 1064 CELLS/uL
- BASOPHIL [3]: 0%
- EOSINOPHIL [3]: 1.33%
- ERYTHROCYTE COUNT [3]: 5.68 x10E6/uL
- HEMATOCRIT [3]: 35.27%
- HEMOGLOBIN [3]: 13.93 G/DL
- LEUKOCYTE COUNT [3]: 14.2 x10E3/uL
- LYMPHOCYTE [3]: 90.33%
- MEAN CORPUSCULAR HEMOGLOBIN [3]: 24.53 pg
- MEAN CORPUSCULAR HEMOGLOBIN CONCENTRATION [3]: 39.5 G/DL
- MEAN CORPUSCULAR VOLUME [3]: 62.13 fL
- MONOCYTE [3]: 0.33%
- NEUTROPHIL [3]: 8%
- NUCLEATED RED BLOOD CELLS [3]: 0 /100WBC
- PLATELET COUNT [3]: 1229.33 x10E3/uL
- ALANINE AMINOTRANSFERASE [3]: 60 u/L
- ALBUMIN [3]: 4.2 G/DL
- ALKALINE PHOSPHATASE [3]: 309 u/L
- ASPARTATE AMINOTRANSFERASE [3]: 77.67 u/L
- BLOOD UREA NITROGEN [3]: 18 mg/dL
- CARBON DIOXIDE [3]: 32 mmol/L
- CHLORIDE [3]: 100.67 MEQ/L
- CHOLESTEROL [3]: 94.33 mg/dL
- CREATINE PHOSPHOKINASE [3]: 141 u/L
- CREATININE [3]: 0.18 mg/dL
- GLUCOSE [3]: 140 mg/dL
- LACTATE DEHYDROGENASE [3]: 104 u/L
- LIPASE [3]: 9.67 u/L
- PHOSPHORUS [3]: 11.33 mg/dL
- POTASSIUM [3]: 6.92 MEQ/L
- SODIUM [3]: 144.13 MEQ/L
- TOTAL BILIRUBIN [3]: 0.17 mg/dL
- TOTAL PROTEIN [3]: 6 G/DL
- URIC ACID [3]: 1.43 mg/dL
- ABSOLUTE BASOPHIL [4]: 0 CELLS/uL
- ABSOLUTE EOSINOPHIL [4]: 45.67 CELLS/uL
- ABSOLUTE LYMPHOCYTE [4]: 13556.33 CELLS/uL
- ABSOLUTE MONOCYTE [4]: 151.67 CELLS/uL
- ABSOLUTE SEGMENTED NEUTROPHIL [4]: 1413 CELLS/uL
- BASOPHIL [4]: 0%
- EOSINOPHIL [4]: 0.33%
- ERYTHROCYTE COUNT [4]: 5.47 x10E6/uL
- HEMATOCRIT [4]: 33.33%
- HEMOGLOBIN [4]: 13.37 G/DL
- LEUKOCYTE COUNT [4]: 15.17 x10E3/uL
- LYMPHOCYTE [4]: 88.67%
- MEAN CORPUSCULAR HEMOGLOBIN [4]: 24.47 pg
- MEAN CORPUSCULAR HEMOGLOBIN CONCENTRATION [4]: 40.1 G/DL
- MEAN CORPUSCULAR VOLUME [4]: 60.97 fL
- MONOCYTE [4]: 1%
- NEUTROPHIL [4]: 10%
- NUCLEATED RED BLOOD CELLS [4]: 0 /100WBC
- PLATELET COUNT [4]: 1262.67 x10E3/uL
- ALANINE AMINOTRANSFERASE [4]: 63.33 u/L
- ALBUMIN [4]: 4.13 G/DL
- ALKALINE PHOSPHATASE [4]: 352 u/L
- ASPARTATE AMINOTRANSFERASE [4]: 99 u/L
- BLOOD UREA NITROGEN [4]: 19.33 mg/dL
- CARBON DIOXIDE [4]: 24 mmol/L
- CHLORIDE [4]: 106.67 MEQ/L
- CHOLESTEROL [4]: 73 mg/dL
- CREATINE PHOSPHOKINASE [4]: 430.33 u/L
- CREATININE [4]: 0.2 mg/dL
- GLUCOSE [4]: 150.33 mg/dL
- LACTATE DEHYDROGENASE [4]: 413.67 u/L
- LIPASE [4]: 9.67 u/L
- PHOSPHORUS [4]: 11.63 mg/dL
- POTASSIUM [4]: 6.95 MEQ/L
- SODIUM [4]: 148.53 MEQ/L
- TOTAL BILIRUBIN [4]: 0.17 mg/dL
- TOTAL PROTEIN [4]: 6.03 G/DL
- URIC ACID [4]: 1.6 mg/dL
